Laboratory results as given in the supplement of paper PMC3974653.
Where a name gives a salt, the structure may show the parent alone.

The compounds below were run on MTT (mouse pheochromocytoma) (assay: IC50 of cell viability (ATP content)). Details: (24 or 48 h).
How it was run: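 The IC50 was fitted with a four-parameter logistic equation to normalised CellTiter-Glo ATP luminescence from MTT mouse pheochromocytoma cells. These cells, in white 1536-well plates, had been treated for 24 or 48 hrs with library compounds at 8 final concentrations between 0.5 nM and 46 µM, and luminescence was read after 15 minutes. Positive-control wells served as 100% and DMSO wells as 0%.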

`N=C(N)NCCC[C@H](NC(=O)[C@@H]1CCCN1C(=O)[C@@H]1CSSC[C@H](N)C(=O)N[C@@H](Cc2ccc(O)cc2)C(=O)N[C@@H](Cc2ccccc2)C(=O)N[C@@H](CCC(N)=O)C(=O)N[C@@H](CC(N)=O)C(=O)N1)C(=O)NCC(N)=O` [Argipressin acetate] was tested. Which “IC50 of cell viability” value did it give?
Its value is greater than 46 µM.

`CNC(=O)OCC[N+](C)(C)C.[Cl-]` [Methylcarbamylcholine chloride] was tested. Which “IC50 of cell viability” value did it give?
Its value is greater than 46 µM.

With `CCOC(=O)CC(SP(=S)(OC)OC)C(=O)OCC` (configuration not stated) [Malathion] as the compound, how does the “IC50 of cell viability” value read?
Its value is greater than 46 µM.

`CCOP(=O)(OCC)O/C(=C/Cl)c1ccc(Cl)cc1Cl` [CLOFENVINFOSUM] was tested. Which “IC50 of cell viability” value did it give?
Its value is greater than 46 µM.

`CC(C)Cc1ccc([C@@H](C)C(=O)NS(C)(=O)=O)cc1.NCCCC[C@H](N)C(=O)O` [REPARIXIN] was tested. Which “IC50 of cell viability” value did it give?
The value was greater than 46 µM.

`CCN(CC)C(=O)N[C@@H]1C=C2c3cccc4[nH]cc(c34)C[C@H]2N(C)C1` [S(-)-LISURIDE] was tested. Which “IC50 of cell viability” value did it give?
Its value is greater than 46 µM.

With `Clc1ccc(CO/N=C(\Cn2ccnc2)c2ccc(Cl)cc2Cl)c(Cl)c1.O=[N+]([O-])O` [OXICONAZOLE NITRATE] as the compound, how does the “IC50 of cell viability” value read?
The value was greater than 46 µM.

Which “IC50 of cell viability” value does the source give for `N=C(N)NC(=N)NCCc1ccccc1.[Cl-].[H+]` [Phenformin HCl] here?
Its value is greater than 46 µM.

With `CSC1=CC=C(C=C1)C(=O)\C2=C(/C)NC(=O)N2` [Enoximone] as the compound, how does the “IC50 of cell viability” value read?
The value was greater than 46 µM.

For `CNCC(=O)c1ccc(O)c(O)c1` [Adrenone], which “IC50 of cell viability” value is on record?
Its value is greater than 46 µM.

`CC1Cc2ccccc2N1NC(=O)c1ccc(Cl)c([S+](N)(=O)[O-])c1` (configuration not stated) [INDAPAMIDE] was tested. Which “IC50 of cell viability” value did it give?
The value was greater than 46 µM.

For `CC[C@]1(C)CC(=O)NC1=O` [Ethosuximide], which “IC50 of cell viability” value is on record?
Its value is greater than 46 µM.

`OCCN1CCN(CC/C=C2\c3ccccc3Sc3ccc(Cl)cc32)CC1` [Zuclopenthixol hydrochloride] was tested. Which “IC50 of cell viability” value did it give?
Its value is greater than 46 µM.

With `O=c1[nH]c2cc(C(F)(F)F)c(N3CCOCC3)cc2n(CP(=O)(O)O)c1=O` [FANAPANELUM] as the compound, how does the “IC50 of cell viability” value read?
Its value is greater than 46 µM.

`O=P(O)(O)O` [phosphoric acid] was tested. Which “IC50 of cell viability” value did it give?
The value was greater than 46 µM.

`N#CC(C#N)=Cc1ccc(O)c(O)c1` [Tyrphostin 23] was tested. Which “IC50 of cell viability” value did it give?
Its value is greater than 46 µM.

Which “IC50 of cell viability” value does the source give for `CC(Cc1cccc(C(F)(F)F)c1)NCCOC(=O)c1ccccc1.Cl` (configuration not stated) [BENFLUOREX HYDROCHLORIDE] here?
The value was greater than 46 µM.

Which “IC50 of cell viability” value does the source give for `CCOC(=O)[C@H](CCc1ccccc1)N[C@H]1CCCN2CCC[C@@H](C(=O)O)N2C1=O` [Cilazapril] here?
The value was greater than 46 µM.

With `O=S(=O)([O-])Oc1ccc(C(c2ccc(OS(=O)(=O)[O-])cc2)c2ccccn2)cc1` [Picosulfate sodium] as the compound, how does the “IC50 of cell viability” value read?
The value was greater than 46 µM.

With `CCCSP(=O)(OCC)SCCC` [Ethoprop] as the compound, how does the “IC50 of cell viability” value read?
The value was greater than 46 µM.

`O=C(CCCN1CCC(n2c(=O)[nH]c3ccccc32)CC1)c1ccc(F)cc1` [Benperidol] was tested. Which “IC50 of cell viability” value did it give?
The value was greater than 46 µM.

`O=C(O)[C@@H](O)[C@@H](O)[C@H](O)[C@H](O)CO` [GLUCONIC ACID, BARIUM SALT] was tested. Which “IC50 of cell viability” value did it give?
The value was greater than 46 µM.

How did the “IC50 of cell viability” value turn out when `Cc1cccc(C)c1NC(=O)NC1=CCCN1C` [Xilobam] was run?
Its value is greater than 46 µM.

Which “IC50 of cell viability” value does the source give for `O=C(O)c1ccccc1-c1ccc(C(F)(F)F)cc1` [Xenalipin] here?
The value was greater than 46 µM.

How did the “IC50 of cell viability” value turn out when `O=P1(N(CCCl)CCCl)NCCCO1` (configuration not stated) [Cyclophosphamide] was run?
Its value is greater than 46 µM.

How did the “IC50 of cell viability” value turn out when `O=C(NCCN1CCOCC1)c1ccc(Cl)cc1` [MOCLOBEMIDE] was run?
The value was greater than 46 µM.

With `Cl.CC(C)NC/1=C(C)/N(C)N(C1=O)C2=CC=CC=C2` [RAMIFENAZONE] as the compound, how does the “IC50 of cell viability” value read?
The value was greater than 46 µM.

How did the “IC50 of cell viability” value turn out when `COc1ccc([S+](=O)([O-])N2c3ccc(Cl)cc3[C@](O)(c3ccccc3Cl)[C@@H]2C(=O)N2CCC[C@H]2C(N)=O)cc1OC` [RELCOVAPTANUM] was run?
Its value is greater than 46 µM.

How did the “IC50 of cell viability” value turn out when `O=C(O)C(Cc1cc(I)c(O)c(I)c1)c1ccccc1` (configuration not stated) [PHENIODOLUM NATRICUM] was run?
The value was greater than 46 µM.

Which “IC50 of cell viability” value does the source give for `CC\C1=C(/C)CN(C(=O)NCCC2=CC=C(C=C2)[S+]([O-])(=O)NC(=O)NC3CCC(C)CC3)C1=O` (configuration not stated) [Glimepiride] here?
The value was greater than 46 µM.

`CN(C)CC[C@@](O)(c1ccccc1)c1ccccc1Cl` [CHLOPHEDIANOL HYDROCHLORIDE] was tested. Which “IC50 of cell viability” value did it give?
The value was greater than 46 µM.

For `CCOCCOC(C)=O` [2-Ethoxyethyl acetate], which “IC50 of cell viability” value is on record?
The value was greater than 46 µM.

`CN(C)CCOC(c1ccccc1)c1ccccc1` [Diphenhydramine] was tested. Which “IC50 of cell viability” value did it give?
Its value is greater than 46 µM.

Which “IC50 of cell viability” value does the source give for `CC/C=C\C/C=C\C/C=C\C/C=C\C/C=C\C/C=C\CCC(=O)O` [DOCOSAHEXAENOIC ACID] here?
The value was greater than 46 µM.

Which “IC50 of cell viability” value does the source give for `CCCCC(CC)CCC(CC(C)C)OS(=O)(=O)[O-]` (configuration not stated) [SODIUM TETRADECYL SULFATE] here?
Its value is greater than 46 µM.

Which “IC50 of cell viability” value does the source give for `FC(F)OC(Cl)C(F)(F)F` (configuration not stated) [ISOFLURANE] here?
Its value is greater than 46 µM.

How did the “IC50 of cell viability” value turn out when `C/C(=C(/CCOP(=O)(O)O)SC(=O)c1ccccc1)N(C=O)Cc1cnc(C)nc1N` [Benfotiamine] was run?
The value was greater than 46 µM.

With `CC(=O)SC[C@@H](C)C(=O)N1CCC[C@H]1C(=O)N[C@@H](Cc1ccccc1)C(=O)O` [ALACEPRIL] as the compound, how does the “IC50 of cell viability” value read?
Its value is greater than 46 µM.

For `CCN(CC)C(=O)N1CCN(C)CC1.O=C(O)CC(O)(CC(=O)O)C(=O)O` [Diethylcarbamazine citrate], which “IC50 of cell viability” value is on record?
Its value is greater than 46 µM.

Which “IC50 of cell viability” value does the source give for `O=P(O)(O)C(O)(Cn1ccnc1)P(=O)(O)O` [Zoledronic acid] here?
Its value is greater than 46 µM.

How did the “IC50 of cell viability” value turn out when `COc1ccccc1N1CCN(CC(O)COc2cccc3ccccc23)CC1` (configuration not stated) [NAFTOPIDIL] was run?
The value was greater than 46 µM.

With `COc1cc(N[S+](C)(=O)[O-])ccc1Nc1c2ccccc2nc2ccccc12.Cl` [Amsacrine hydrochloride] as the compound, how does the “IC50 of cell viability” value read?
Its value is greater than 46 µM.

With `O=C1CCC(=O)N1CO` [N-HYDROXYMETHYLSUCCINIMIDE] as the compound, how does the “IC50 of cell viability” value read?
Its value is greater than 46 µM.

Which “IC50 of cell viability” value does the source give for `CC(C)n1c(/C=C/[C@H](O)C[C@H](O)CC(=O)[O-])c(-c2ccc(F)cc2)c2ccccc21` [Fluvastatina] here?
Its value is greater than 46 µM.

How did the “IC50 of cell viability” value turn out when `CN(C)CCc1c[nH]c2ccc(CC3COC(=O)N3)cc12` (configuration not stated) [ZOLMITRIPTAN] was run?
The value was greater than 46 µM.

Which “IC50 of cell viability” value does the source give for `O=C1CCCCC1CN1CCCCC1` (configuration not stated) [Pimeclone] here?
The value was greater than 46 µM.

`O=C(O)Cc1cccc2ccccc12` [1-Naphthalene acetic acid] was tested. Which “IC50 of cell viability” value did it give?
Its value is greater than 46 µM.

Which “IC50 of cell viability” value does the source give for `CCC1(c2ccccc2)C(=O)N(COC)C(=O)N(COC)C1=O` [ETEROBARBUM] here?
Its value is greater than 46 µM.

Which “IC50 of cell viability” value does the source give for `NC(C(=O)O)C(O)c1ccc(O)c(O)c1` (configuration not stated) [Droxidopa] here?
The value was greater than 46 µM.

How did the “IC50 of cell viability” value turn out when `CC[N+](CC)(CC)CCOc1ccc(/C=C/c2ccccc2)cc1` [MG 624] was run?
The value was greater than 46 µM.

How did the “IC50 of cell viability” value turn out when `CCCC[N+]1(C)C2CC(OC(=O)C(CO)c3ccccc3)CC1C1OC12` (configuration not stated) [BUTYLSCOPOLAMMONIUM] was run?
The value was greater than 46 µM.

For `COC(=O)C1=C(C)NC(C)=C(C(=O)OCC(C)C)C1c1ccccc1[N+](=O)[O-]` (configuration not stated) [Nisoldipine], which “IC50 of cell viability” value is on record?
Its value is greater than 46 µM.

With `COc1cc(C(=S)N2CCOCC2)ccc1O` [Vanitiolida] as the compound, how does the “IC50 of cell viability” value read?
Its value is greater than 46 µM.

For `NC(=O)OCC(COC(N)=O)c1ccccc1` [FELBAMATE], which “IC50 of cell viability” value is on record?
The value was greater than 46 µM.

How did the “IC50 of cell viability” value turn out when `CCC1(c2ccccc2)CCC(=O)NC1=O` (configuration not stated) [Glutethimide] was run?
Its value is greater than 46 µM.

With `CN1C2CCC1C(C(=O)O)C(OC(=O)c1ccccc1)C2` (configuration not stated) [BENZOYLECGONINE] as the compound, how does the “IC50 of cell viability” value read?
Its value is greater than 46 µM.

With `Nc1ccn([C@@H]2CS[C@H](CO)O2)c(=O)n1` [Lamivudine] as the compound, how does the “IC50 of cell viability” value read?
Its value is greater than 46 µM.
